Test results published in patent US20230117470A1, “SUBSTITUTED PYRAZOLE COMPOUNDS AS TOLL RECEPTOR INHIBITORS” (BRISTOL-MYERS SQUIBB COMPANY, priority 2019, published 2023).

Legend:
Assay type in all cases: cell-based
[1] = molecular target: T1, human TLR8 (Homo sapiens, UniProt Q9NR97); test: TLR8 inhibition reporter assay (HEK-Blue cells, SEAP reporter, R848 stimulation); conditions: HEK-Blue cells overexpressing human TLR8, SEAP reporter, R848 15.9 μM
T1 construct: host or cells: HEK-Blue cells
T1 sequence (Q9NR97 27-1041): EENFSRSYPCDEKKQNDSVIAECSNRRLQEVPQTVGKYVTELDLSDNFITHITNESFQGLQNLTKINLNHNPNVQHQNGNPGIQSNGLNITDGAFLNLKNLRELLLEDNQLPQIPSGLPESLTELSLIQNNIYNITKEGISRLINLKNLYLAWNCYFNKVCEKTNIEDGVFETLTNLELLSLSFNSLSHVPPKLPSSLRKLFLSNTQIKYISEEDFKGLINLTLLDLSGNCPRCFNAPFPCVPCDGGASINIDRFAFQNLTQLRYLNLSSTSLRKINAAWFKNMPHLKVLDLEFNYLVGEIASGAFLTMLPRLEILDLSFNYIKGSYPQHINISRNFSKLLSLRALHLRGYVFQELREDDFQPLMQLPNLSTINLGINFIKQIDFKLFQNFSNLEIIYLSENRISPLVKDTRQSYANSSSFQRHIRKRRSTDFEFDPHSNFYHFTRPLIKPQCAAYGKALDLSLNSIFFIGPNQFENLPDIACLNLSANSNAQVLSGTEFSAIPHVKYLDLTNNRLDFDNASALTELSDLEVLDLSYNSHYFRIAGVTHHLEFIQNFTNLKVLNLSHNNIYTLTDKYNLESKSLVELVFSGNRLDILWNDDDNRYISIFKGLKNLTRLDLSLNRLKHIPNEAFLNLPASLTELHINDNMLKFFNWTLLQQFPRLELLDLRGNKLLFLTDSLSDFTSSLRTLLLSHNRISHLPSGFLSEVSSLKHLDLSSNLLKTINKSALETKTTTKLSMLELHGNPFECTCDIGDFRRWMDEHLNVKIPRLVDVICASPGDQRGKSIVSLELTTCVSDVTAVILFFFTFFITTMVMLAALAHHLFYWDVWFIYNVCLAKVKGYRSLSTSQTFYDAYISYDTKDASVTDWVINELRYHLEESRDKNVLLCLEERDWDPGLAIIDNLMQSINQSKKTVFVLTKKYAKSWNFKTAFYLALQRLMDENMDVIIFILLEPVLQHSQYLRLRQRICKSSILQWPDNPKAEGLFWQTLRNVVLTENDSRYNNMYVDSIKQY
How it was run: (§1)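 Cells were pre-treated 30 min at room temperature with compound (final 0.05 nM–50 μM), then stimulated with gardiquimod 7.5 μM (TLR7), R848 15.9 μM (TLR8) or ODN2006 5 nM (TLR9). SEAP was read after 22 h at 37° C; percent inhibition scaled between agonist+DMSO and known-inhibitor wells.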

[2] = molecular target: T2, human TLR9 (Homo sapiens, UniProt Q9NR96); test: TLR9 inhibition reporter assay (HEK-Blue cells, SEAP reporter, ODN2006 stimulation); conditions: HEK-Blue cells overexpressing human TLR9, SEAP reporter, ODN2006 5 nM
T2 construct: host or cells: HEK-Blue cells
T2 sequence (Q9NR96 26-1032): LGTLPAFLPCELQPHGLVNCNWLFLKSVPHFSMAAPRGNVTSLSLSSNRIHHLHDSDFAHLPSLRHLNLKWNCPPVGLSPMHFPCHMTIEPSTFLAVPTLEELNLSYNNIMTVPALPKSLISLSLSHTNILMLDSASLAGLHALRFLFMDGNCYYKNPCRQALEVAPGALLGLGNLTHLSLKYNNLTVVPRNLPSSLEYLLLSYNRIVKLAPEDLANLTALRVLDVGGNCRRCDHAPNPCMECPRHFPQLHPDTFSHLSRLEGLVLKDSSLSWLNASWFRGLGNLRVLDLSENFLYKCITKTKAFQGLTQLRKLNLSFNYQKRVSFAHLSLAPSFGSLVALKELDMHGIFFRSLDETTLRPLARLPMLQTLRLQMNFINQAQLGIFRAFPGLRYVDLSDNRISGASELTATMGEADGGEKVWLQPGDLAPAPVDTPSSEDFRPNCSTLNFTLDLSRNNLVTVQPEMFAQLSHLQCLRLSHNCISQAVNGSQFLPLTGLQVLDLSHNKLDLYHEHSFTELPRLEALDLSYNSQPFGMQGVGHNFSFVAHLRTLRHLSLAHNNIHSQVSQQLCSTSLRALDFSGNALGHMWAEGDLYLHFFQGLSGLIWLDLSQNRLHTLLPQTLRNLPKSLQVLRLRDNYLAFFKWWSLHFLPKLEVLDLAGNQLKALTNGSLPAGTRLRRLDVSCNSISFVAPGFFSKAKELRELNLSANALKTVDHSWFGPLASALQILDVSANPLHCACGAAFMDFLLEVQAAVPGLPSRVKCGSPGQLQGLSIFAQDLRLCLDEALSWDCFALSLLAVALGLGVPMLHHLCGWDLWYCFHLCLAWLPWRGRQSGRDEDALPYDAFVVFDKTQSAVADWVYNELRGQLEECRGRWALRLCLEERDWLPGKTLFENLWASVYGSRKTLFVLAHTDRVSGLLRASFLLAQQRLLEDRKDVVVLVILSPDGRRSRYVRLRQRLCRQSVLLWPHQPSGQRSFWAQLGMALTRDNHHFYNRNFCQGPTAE
How it was run: as §1

[3] = molecular target: T3, human TLR7 (Homo sapiens, UniProt Q9NYK1); test: TLR7 inhibition reporter assay (HEK-Blue cells, SEAP reporter, gardiquimod stimulation); conditions: HEK-Blue cells overexpressing human TLR7, SEAP reporter, gardiquimod 7.5 μM
T3 construct: host or cells: HEK-Blue cells
T3 sequence (Q9NYK1 27-1049): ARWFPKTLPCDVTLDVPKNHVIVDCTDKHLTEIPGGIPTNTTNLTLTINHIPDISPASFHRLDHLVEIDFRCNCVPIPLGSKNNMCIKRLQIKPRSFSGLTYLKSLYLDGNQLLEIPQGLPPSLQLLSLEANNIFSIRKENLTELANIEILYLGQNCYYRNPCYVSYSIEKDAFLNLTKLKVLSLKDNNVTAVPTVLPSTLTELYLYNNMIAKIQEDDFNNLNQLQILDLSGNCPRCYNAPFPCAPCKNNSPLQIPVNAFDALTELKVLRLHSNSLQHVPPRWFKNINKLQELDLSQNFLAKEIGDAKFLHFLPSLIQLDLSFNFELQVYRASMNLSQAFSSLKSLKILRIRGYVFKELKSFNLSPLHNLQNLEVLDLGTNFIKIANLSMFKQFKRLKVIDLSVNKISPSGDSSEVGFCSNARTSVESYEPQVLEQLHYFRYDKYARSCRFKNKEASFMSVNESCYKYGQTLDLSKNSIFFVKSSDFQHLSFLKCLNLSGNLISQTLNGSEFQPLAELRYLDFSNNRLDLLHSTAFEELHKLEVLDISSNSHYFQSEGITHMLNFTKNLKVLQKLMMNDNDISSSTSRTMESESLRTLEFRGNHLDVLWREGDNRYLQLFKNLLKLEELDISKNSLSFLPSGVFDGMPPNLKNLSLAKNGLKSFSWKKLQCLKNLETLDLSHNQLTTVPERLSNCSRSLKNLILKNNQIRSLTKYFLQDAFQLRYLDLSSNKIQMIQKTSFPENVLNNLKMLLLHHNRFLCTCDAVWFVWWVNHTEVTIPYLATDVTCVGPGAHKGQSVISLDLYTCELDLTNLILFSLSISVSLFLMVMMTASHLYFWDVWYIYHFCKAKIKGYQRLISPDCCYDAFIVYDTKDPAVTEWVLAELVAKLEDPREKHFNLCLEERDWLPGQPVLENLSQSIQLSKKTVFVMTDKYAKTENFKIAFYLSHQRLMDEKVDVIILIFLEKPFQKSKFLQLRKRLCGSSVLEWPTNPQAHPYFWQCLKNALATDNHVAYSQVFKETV
How it was run: as §1

SMILES	IC50 [1]	IC50 [2]	IC50 [3]
Cc1cc(-c2[nH]nc(C(=O)N(C)CCCN(C)C)c2C(C)C)cn2ncnc12 [Example 24]	12.5 nM	793 nM	43.4 nM
Cc1cc(-c2[nH]nc(-c3ncc(C4CCNCC4)cn3)c2C(C)C)cn2ncnc12 [Example 341]	9 nM	16500 nM	7.86 nM
Cc1cc(-c2[nH]nc(C3CCC(N4CCC(N(C)C)CC4)CC3)c2C(C)C)cn2ncnc12 (single isomer, unassigned) [Example 292]	0.46 nM	7520 nM	3.18 nM
Cc1cc(-c2[nH]nc(-c3ncc4c(n3)CCN(C3COC3)C4)c2C(C)C)cn2ncnc12 [Example 251]	2.68 nM	45300 nM	10.6 nM
Cc1cc(-c2[nH]nc(C(=O)N[C@H]3CC[C@@H](NCc4cccnc4)CC3)c2C(C)C)cn2ncnc12 [Example 95]	23.8 nM	43200 nM	11.7 nM
Cc1cc(-c2[nH]nc(-c3ccc(N(C)C)cc3)c2C(C)C)cn2ncnc12 [Example 243]	2.1 nM	29800 nM	16.4 nM
COc1cc(-c2[nH]nc(-c3ccc(C4CCN(CC(N)=O)CC4)cn3)c2C(C)C)cn2ncnc12 [Example 393]	140 nM	> 50000 nM	77.6 nM
CCC(CC)CN[C@H]1CC[C@H](NC(=O)c2n[nH]c(-c3cc(C)c4ncnn4c3)c2C(C)C)CC1 [Example 110]	0.93 nM	5780 nM	2.21 nM
Cc1noc(C)c1CN[C@H]1CC[C@@H](NC(=O)c2n[nH]c(-c3cc(C)c4ncnn4c3)c2C(C)C)CC1 [Example 93]	15.6 nM	12000 nM	1.89 nM
CC(C)c1c(C(=O)NC2CCN(C(C)C)CC2)n[nH]c1-c1ccnc2[nH]ncc12 [Example 35]	0.79 nM	4350 nM	2.77 nM
Cc1cc(-c2[nH]nc(-c3ncc(C4CCN(C)CC4)cn3)c2C(C)C)cn2ncnc12 [Example 368]	28.1 nM	5460 nM	10.5 nM
CCN(CCC#N)C(=O)c1n[nH]c(-c2cc(C)c3ncnn3c2)c1C(C)C [Example 20]	8.06 nM	16100 nM	3.69 nM
Cc1cc(-c2[nH]nc(C(=O)N(C)C)c2C(C)C)cn2ncnc12 [Example 31]	3.02 nM	> 50000 nM	3.98 nM
Cc1cc(-c2[nH]nc(-c3ccc(NC(C)C)nc3)c2C(C)C)cn2ncnc12 [Example 240]	2.82 nM	6230 nM	3.72 nM
Cc1cc(-c2[nH]nc(C3CCC(N(C)C(=O)C4CN(C(C)C)C4)CC3)c2C(C)C)cn2ncnc12 (single isomer, unassigned) [Example 303]	0.93 nM	26400 nM	7.99 nM
COc1cc(-c2[nH]nc(-c3cnc(C4CCN(C5CCOCC5)CC4)cn3)c2C(C)C)cn2ncnc12 [Example 380]	5.07 nM	6520 nM	11.5 nM
COc1cc(-c2[nH]nc(-c3ccc(C4CCN(C)CC4)cn3)c2C(C)C)cn2ncnc12 [Example 348]	22.4 nM	> 50000 nM	19.1 nM
Cc1cc(-c2[nH]nc(C(=O)NC3CCN(C(C)C)CC3)c2C(C)C)cc(C)n1 [Example 36]	1540 nM	25200 nM	1300 nM
COc1cc(-c2[nH]nc(-c3ccc(C4CN(C5COC5)C4)cc3)c2C(C)C)cn2ncnc12 [Example 332]	1.91 nM	10200 nM	16.9 nM
CNC1CCC(NC(=O)c2n[nH]c(-c3cc(C)c4ncnn4c3)c2C(C)C)CC1 (stereo not drawn) [Example 129]	7.36 nM	14400 nM	1.34 nM
COc1cc(-c2[nH]nc(-c3cnc(C4CCN(CCCF)CC4)cn3)c2C(C)C)cn2ncnc12 [Example 399]	132 nM	> 50000 nM	126 nM
COc1cc(-c2[nH]nc(-c3ccc(C4CN(C5CCOCC5)C4)cc3)c2C(C)C)cn2ncnc12 [Example 333]	2.19 nM	37400 nM	34.9 nM
COc1cc(-c2[nH]nc(-c3cnc(C4CCN(C5CCC5)CC4)cn3)c2C(C)C)cn2ncnc12 [Example 387]	43.9 nM	11500 nM	25.2 nM
COc1cc(-c2[nH]nc(-c3ccc(C4CN(CC(C)(C)O)C4)cc3)c2C(C)C)cn2ncnc12 [Example 337]	7.61 nM	42400 nM	8.27 nM
Cc1cc(-c2[nH]nc(C(=O)NC3CN(C)C3)c2C(C)C)cn2ncnc12 [Example 156]	0.09 nM	10900 nM	1.72 nM
Cc1cc(-c2[nH]nc(C(=O)NC3CCC(O)CC3)c2C(C)C)cn2ncnc12 (stereo not drawn) [Example 32]	15.9 nM	> 50000 nM	3.41 nM
Cc1cc(-c2[nH]nc(-c3cncc(NC(C)C)c3)c2C(C)C)cn2ncnc12 [Example 239]	0.27 nM	9920 nM	1.96 nM
